Where two headings read alike, the source gives them in different places.
How the values were obtained:
[1] = test system: TLR2 induced IL-6 in peripheral blood mononuclear cells (PBMCs); assay: PBMC TLR2 Induced IL-6 Assay; assay type: cell-based, human; settings: human PBMCs, 10 μg/ml lipoteichoic acid for 5 hours, IL-6 by ELISA; for IC50: value without asterisk, read-out: Cell IC50; for EC50: EC50 determinations are indicated with an asterisk, read-out: Cell EC50 (asterisk)
Procedure, shortened: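 IL-6 ELISA of supernatants after a 5 h challenge with the TLR2 agonist lipoteichoic acid (10 μg/ml). Before stimulation, human PBMCs (250000 cells/well; RPMI, 10% heat-inactivated FCS) received compound for 30 min at 37° C. Values given as IC50 or EC50.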

[2] = molecular target: IRAK4 (Homo sapiens (Human), UniProt Q9NWZ3); assay: IRAK4 Inhibition Assay; assay type: biochemical; settings: ATP 500 μM; IRAK4 0.6 nM; 60 min at room temperature
Protocol: The assays were performed in U-bottom 384-well plates. […] The reaction was initiated by the combination of IRAK4 with substrates and test compounds. The reaction was incubated at room temperature for 60 min. and terminated by adding 45 μL of 35 mM EDTA to each sample. The reaction mixture was analyzed on the Caliper LABCHIP® 3000 (Caliper, Hopkinton, Mass.) by electrophoretic separation of the fluorescent substrate and phosphorylated product.

IRAK4, sequence (Q9NWZ3 whole entry, species assumed): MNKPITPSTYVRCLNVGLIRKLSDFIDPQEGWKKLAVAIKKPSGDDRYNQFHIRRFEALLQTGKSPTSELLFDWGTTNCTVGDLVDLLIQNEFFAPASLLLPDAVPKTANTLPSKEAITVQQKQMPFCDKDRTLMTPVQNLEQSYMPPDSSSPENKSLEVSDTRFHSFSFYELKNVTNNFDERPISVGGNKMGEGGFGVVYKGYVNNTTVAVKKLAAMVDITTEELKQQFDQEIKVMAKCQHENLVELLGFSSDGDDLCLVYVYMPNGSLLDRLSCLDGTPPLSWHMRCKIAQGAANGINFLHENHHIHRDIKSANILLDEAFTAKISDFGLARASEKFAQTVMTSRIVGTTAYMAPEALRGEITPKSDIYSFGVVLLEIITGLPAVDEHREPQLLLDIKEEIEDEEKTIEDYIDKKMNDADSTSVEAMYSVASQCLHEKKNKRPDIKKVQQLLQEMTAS

| SMILES | IC50 [2] [µM] | IC50 ([1]; Homo sapiens, PBMC, 5 h) [µM] | IC50 [1] [µM] | EC50 ([1]; Homo sapiens, PBMC, 5 h) [µM] |
| --- | --- | --- | --- | --- |
| CC(C)Nc1cc(Nc2ccc3ncsc3c2)ncc1C(=O)NC[C@@H](F)CO [Example 5, (R)-6-(benzo[d]thiazol-6-ylamino)-N-(2-fluoro-3-hydroxypropyl)-4-(isopropylamino)nicotinamide] | 0.0096 | 0.484 |  |  |
| CC(C)(O)[C@H](F)CNC(=O)c1cnc(Nc2ccc3ncsc3c2)cc1Nc1cccc(CCO)c1 [Example 59] | 0.006 | 0.099 |  |  |
| CC(C)Nc1cc(Nc2ccc3ncsc3c2)ncc1C(=O)NCC[C@@H](C)NC(=O)OC(C)(C)C [Example 175] | 0.0051 | 0.402 |  |  |
| C[C@@H](CO)Nc1cc(Nc2nc3scnc3cc2F)ncc1C(=O)N[C@H]1CC[C@H](O)CC1 [Example 484] | 0.0087 | 1.35 |  |  |
| Cc1ccccc1CNc1cc(Nc2ccc3ncsc3c2)ncc1C(=O)NC[C@@H](F)C(C)(C)O [Example 166] | 0.0084 | 0.266 |  |  |
| CC(C)(O)[C@H](F)CNC(=O)c1cnc(Nc2ccc3ncsc3c2)cc1NC12CCC(NC(=O)c3cccnc3)(CC1)C2 [Example 395] | 0.0044 | 0.333 |  |  |
| CC(C)Nc1cc(Nc2ccc3ncsc3c2)ncc1C(=O)NC[C@@H](F)C(O)C1CC1 (stereo partly shown) [Example 15] | 0.0052 | 0.541 |  |  |
| CCC(O)(CC)[C@H](F)CNC(=O)c1cnc(Nc2cc3scnc3cn2)cc1NC1CC1 [Example 403] | 0.021 | 1.48 |  |  |
| CC(C)(O)[C@H](F)CNC(=O)c1cnc(Nc2ccn3nccc3n2)cc1NC1CCCC1F (stereo partly shown) [Example 246] | 0.0055 |  | 0.262 |  |
| CC(C)(O)[C@H](F)CNC(=O)c1cnc(Nc2ccc3nccnc3n2)cc1NC1CC1 [Example 97] | 0.0164 | 0.302 |  |  |
| CC(C)(O)[C@H](F)CNC(=O)c1cnc(Nc2ccc3ncsc3c2)cc1NC12CCC(NC(=O)c3ccccc3)(CC1)C2 [Example 394] | 0.0102 | 0.311 |  |  |
| CC(C)(O)[C@H](F)CNC(=O)c1cnc(Nc2ncc3ncccc3n2)cc1NC1CCC(F)C1 (stereo partly shown) [Example 448] | 0.0165 |  | 0.047 |  |
| CC(C)(O)[C@H](F)CNC(=O)c1cnc(Nc2ccc3ncsc3c2)cc1Nc1ccc(C(=O)NCCO)cc1 [Example 325] | 0.0049 | 0.853 |  |  |
| CC(C)(O)[C@H](F)CNC(=O)c1cnc(Nc2ccn3nccc3n2)cc1Nc1ccc(S(C)(=O)=O)cc1 [Example 383] | 0.0063 | 0.194 |  |  |
| CNC(=O)c1cnc(Nc2ccc3ncsc3c2)cc1NC1C2CC3CC1CC(O)(C3)C2 (single isomer, unassigned) [Example 146] | 0.0539 | 0.55 |  |  |
| CC(C)(O)[C@H](F)CNC(=O)c1cnc(Nc2ncc3ccc(F)cc3n2)cc1NC1CCOCC1 [Example 495] | 0.0119 |  |  | 0.447 |
| CC(C)Nc1cc(Nc2nc3ccnn3cc2F)ncc1C(=O)NC[C@@H](F)C(C)(C)O [Example 367, (R)—N-(2-fluoro-3-hydroxy-3-methylbutyl)-6-((6-fluoropyrazolo[1,5-a]pyrimidin-5-yl)amino)-4-(isopropylamino)nicotinamide] | 0.0048 | 0.569 |  |  |
| CCC(O)(CC)[C@H](F)CNC(=O)c1cnc(Nc2ccn3nccc3n2)cc1NCC(C)(C)F [Example 389] | 0.0104 | 0.574 |  |  |
| CC(O)([C@H](F)CNC(=O)c1cnc(Nc2ccc3ncsc3c2)cc1NC1CC1)C(F)(F)F (stereo partly shown) [Example 19] | 0.0043 |  | 0.177 |  |
| CCCNC(=O)c1ccc(Nc2cc(Nc3ccc4ncsc4c3)ncc2C(=O)NC[C@@H](F)C(C)(C)O)cc1 [Example 326] | 0.0129 | 0.437 |  |  |
| CC(O)([C@H](F)CNC(=O)c1cnc(Nc2ccc3ncsc3c2)cc1N[C@@H]1CCC[C@H]1O)C(F)(F)F (stereo partly shown) [Example 334] | 0.0045 |  | 0.321 |  |
| CC(C)(O)[C@H](F)CNC(=O)c1cnc(Nc2ccn3nccc3c2)cc1NCC1CC1 [Example 290] | 0.0114 | 0.607 |  |  |
| CC(C)(O)[C@H](F)CNC(=O)c1cnc(Nc2ccc3nc(N)ccc3c2)cc1NC1CC1 [Example 75] | 0.0189 | 0.71 |  |  |
| CC(C)(O)[C@H](F)CNC(=O)c1cnc(Nc2ccc3ncsc3c2)cc1Nc1ccc(C(=O)NC2CC2)cc1 [Example 321] | 0.0064 | 1.15 |  |  |
| CC(C)Nc1cc(Nc2ccn3nccc3n2)ncc1C(=O)NC12CCC(N)(CC1)CC2 [Example 318, N-(4-aminobicyclo[2.2.2]octan-1-yl)-4-(isopropylamino)-6-(pyrazolo[1,5-a]pyrimidin-5-ylamino)nicotinamide] | 0.0069 | 0.278 |  |  |

Continued, in another order:

| IC50 [2] [µM] | SMILES | IC50 ([1]; Homo sapiens, PBMC, 5 h) [µM] | IC50 [1] [µM] | EC50 ([1]; Homo sapiens, PBMC, 5 h) [µM] |
| --- | --- | --- | --- | --- |
| 0.0023 | CC(C)(O)[C@H](F)CNC(=O)c1cnc(Nc2ccc3ncsc3c2)cc1NC1C2CCCC21 (stereo partly shown) [Example 108] | 0.507 |  |  |
| 0.0022 | CC(C)(O)[C@H](F)CNC(=O)c1cnc(Nc2nc3ccnn3cc2F)cc1NC1CCC(F)C1 (stereo partly shown) [Example 478] |  | 0.05 |  |
| 0.001 | CC(C)(O)[C@H](F)CNC(=O)c1cnc(Nc2ccc3ncsc3n2)cc1NC1CCOCC1 [Example 312] | 0.029 |  |  |
| 0.0032 | CC(C)(O)C(F)CNC(=O)c1cnc(Nc2ccc3ncsc3c2)cc1N[C@H]1CCCC(F)C1 (stereo partly shown) [Example 329, 6-(benzo[d]thiazol-6-ylamino)-N-(2-fluoro-3-hydroxy-3-methylbutyl)-4-(3-fluorocyclohexylamino)nicotinamide] | 0.113 |  |  |
| 0.0043 | CC(C)(O)C(F)(F)CNC(=O)c1cnc(Nc2nc3scnc3cc2F)cc1NC1CC1 [Example 493] |  |  | 0.365 |
| 0.0031 | CC(C)(O)[C@H](F)CNC(=O)c1cnc(Nc2ccc3ncsc3c2)cc1NC12CCC(NC(=O)c3ccncc3)(CC1)C2 [Example 399] | 0.203 |  |  |
| 0.0043 | CC(C)(O)[C@H](F)CNC(=O)c1cnc(Nc2ccn3nccc3n2)cc1NC1CCSCC1 [Example 385] | 0.135 |  |  |
| 0.0012 | CC(C)(O)[C@H](F)CNC(=O)c1cnc(Nc2ccc3nccn3n2)cc1NC1CCC(F)C1 (stereo partly shown) [Example 281] |  | 0.354 |  |
| 0.0037 | CC(=O)N[C@H](C)CCNC(=O)c1cnc(Nc2ccc3ncsc3c2)cc1NC(C)C [Example 180] | 0.415 |  |  |
| 0.0031 | CCNc1cc(Nc2cc3scnc3cc2F)ncc1C(=O)NC[C@@H](F)C(C)(C)O [Example 516] | 1.2 |  |  |
| 0.0033 | CC(C)(O)c1cnc(Nc2cc(Nc3ccn4nccc4n3)ncc2C(=O)NC[C@@H](F)C(C)(C)O)s1 [Example 421] | 0.131 |  |  |
| 0.0021 | CC(C)NC(=O)N[C@H]1CC[C@H](NC(=O)c2cnc(Nc3ccc4ncsc4c3)cc2NC(C)C)CC1 [Example 206] | 0.139 |  |  |
| 0.0019 | CC(C)(O)[C@H](F)CNC(=O)c1cnc(Nc2ccc3nccnc3c2)cc1NC1CC2CCC1C2 (stereo partly shown) [Example 95] | 0.058 |  |  |
| 0.0027 | CC(C)(O)[C@H](F)CNC(=O)c1cnc(Nc2ccc3ncsc3c2)cc1NC12CCC(NS(C)(=O)=O)(CC1)C2 [Example 396] | 0.351 |  |  |
| 0.0036 | CC(C)(O)[C@H](F)CNC(=O)c1cnc(Nc2nc3ccnn3cc2F)cc1NC1CC2CC2C1(F)F (stereo partly shown) [Example 481] | 0.223 |  |  |
| 0.0018 | CC(C)Nc1cc(Nc2ccc3ncsc3c2)ncc1C(=O)N[C@H]1CC[C@H](NC(=O)N2CCOCC2)CC1 [Example 205] | 0.169 |  |  |

— patent publication US9546153B2, “Bicyclic heterocycle substituted pyridyl compounds useful as kinase modulators” (BRISTOL-MYERS SQUIBB COMPANY, priority 2012, dated 2017)
